The values that follow come from PMC4286194 (Biochemical Journal, 2015).

Test [1] deals with CRTC3. Description: CRTC3 nuclear translocation (immunofluorescence). Format: cell-based, mouse. Particulars: bone-marrow-derived macrophages, 1 h. As to the method: Macrophages were seeded on glass coverslips and treated with inhibitors for 1 h. Cells were then fixed for 10 min in 4% paraformaldehyde, permeabilized for 5 min using 0.1% Triton X-100 in PBS and blocked for 45 min using 3% BSA in PBS. Cells were stained with anti-CRTC3 and anti-tubulin followed by Alexa Fluor® […] anti-rabbit and Alexa Fluor® 488-conjugated anti-mouse antibodies respectively. Antibodies were diluted in blocking buffer and incubated with the cells for 45 min. Cells were mounted in Prolong Gold Antifade Reagent containing DAPI (Invitrogen) and visualized under a Zeiss LSM 700 confocal microscope using an Alpha Plan-Apochromat ×100/numerical aperture (NA) 1.46 objective (optical section thickness 0.7 μm). Fields of cells were selected at random using only the DAPI stained channel. Optical sections were taken through the centre of the nuclei, 10 fields collected per coverslip and images were quantified using the Volocity programme (PerkinElmer). Nuclei were identified using the DAPI stained channel, merged objects were separated and the mean intensity of the […] in the nuclear and cytoplasmic regions was measured. For each field, the mean of the nuclear to cytoplasmic intensity ratio was calculated, which was subsequently used to determine the overall mean nuclear to cytoplasmic intensity ratio for each treatment.

Test [2] concerns the target T1, IKK epsilon (Homo sapiens, UniProt Q14164).
T1 sequence (Q14164 1-716): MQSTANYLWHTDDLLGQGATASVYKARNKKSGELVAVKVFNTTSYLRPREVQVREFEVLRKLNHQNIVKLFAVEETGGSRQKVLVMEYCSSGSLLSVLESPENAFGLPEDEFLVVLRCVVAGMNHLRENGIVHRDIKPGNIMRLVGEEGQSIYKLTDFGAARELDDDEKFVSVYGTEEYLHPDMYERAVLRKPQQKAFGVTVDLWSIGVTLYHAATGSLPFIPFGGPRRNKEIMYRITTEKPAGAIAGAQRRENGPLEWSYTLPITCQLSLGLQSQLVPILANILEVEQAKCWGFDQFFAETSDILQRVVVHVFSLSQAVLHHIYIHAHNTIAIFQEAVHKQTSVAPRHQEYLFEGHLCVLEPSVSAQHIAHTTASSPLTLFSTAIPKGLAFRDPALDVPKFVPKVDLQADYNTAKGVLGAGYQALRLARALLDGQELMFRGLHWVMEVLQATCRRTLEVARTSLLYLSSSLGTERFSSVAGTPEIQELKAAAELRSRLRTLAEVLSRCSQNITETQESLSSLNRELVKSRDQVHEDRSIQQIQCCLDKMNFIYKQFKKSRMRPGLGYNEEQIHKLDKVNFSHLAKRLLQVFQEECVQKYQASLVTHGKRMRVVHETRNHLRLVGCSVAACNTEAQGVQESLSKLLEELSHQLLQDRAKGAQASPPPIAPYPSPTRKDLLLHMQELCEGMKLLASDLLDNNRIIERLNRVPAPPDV
Description: Kinase profiling. Format: biochemical.

Test [3] concerns the target SIK2 (Homo sapiens, UniProt Q9H0K1). Description: Kinase profiling. Format: biochemical.
The target in test [4] is PKC alpha (Homo sapiens, UniProt P17252). Description: Kinase profiling. It counts as biochemical.
The target in test [5] is T2, p38 gamma MAPK (Homo sapiens, UniProt P53778).
T2 sequence (P53778 1-367): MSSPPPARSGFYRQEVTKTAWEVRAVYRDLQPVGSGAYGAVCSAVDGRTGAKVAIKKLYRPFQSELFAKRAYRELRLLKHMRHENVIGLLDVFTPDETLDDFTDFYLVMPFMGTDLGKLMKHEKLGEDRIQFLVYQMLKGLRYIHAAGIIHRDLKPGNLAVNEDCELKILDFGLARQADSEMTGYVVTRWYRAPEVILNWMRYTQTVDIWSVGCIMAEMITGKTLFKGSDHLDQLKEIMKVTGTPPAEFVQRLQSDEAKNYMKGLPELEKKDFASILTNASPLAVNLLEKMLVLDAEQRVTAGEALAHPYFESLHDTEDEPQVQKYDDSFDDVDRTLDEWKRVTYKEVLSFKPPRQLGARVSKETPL
Kind of test: Kinase profiling. It counts as biochemical.

Test [6] has as its target IRR (Homo sapiens, UniProt P14616). Description: Kinase profiling. Format: biochemical.
Test [7] relates to Bone-marrow-derived macrophages. Kind of test: CREB-dependent gene transcription (qPCR). Format: cell-based, mouse. Particulars: 3 μM bosutinib or 0.3 μM dasatinib; LPS or Pam3CSK4. The method, then: (§1) mRNA was extracted from cells using the MicroElute Total RNA kit following the manufacturers’ instructions (Omega Bio-Tek). cDNA was generated from 0.5 μg of total RNA using the iScript cDNA synthesis kit and quantified by quantitative real-time PCR (qPCR) using the SsoFast EvaGreen Supermix on a CFX384 real-time system (Bio-Rad Laboratories). The relative expression of each gene was calculated from CT values using the Pfaffl method and was normalized against the mRNA levels of housekeeping genes including 18S RNA and GAPDH. Results are reported relative to untreated control cells, which were set to 1.

The target in test [8] is MARK1 (Homo sapiens, UniProt Q9P0L2). Kind of test: Kinase profiling. Format: biochemical.
MARK1, sequence (Q9P0L2 whole entry): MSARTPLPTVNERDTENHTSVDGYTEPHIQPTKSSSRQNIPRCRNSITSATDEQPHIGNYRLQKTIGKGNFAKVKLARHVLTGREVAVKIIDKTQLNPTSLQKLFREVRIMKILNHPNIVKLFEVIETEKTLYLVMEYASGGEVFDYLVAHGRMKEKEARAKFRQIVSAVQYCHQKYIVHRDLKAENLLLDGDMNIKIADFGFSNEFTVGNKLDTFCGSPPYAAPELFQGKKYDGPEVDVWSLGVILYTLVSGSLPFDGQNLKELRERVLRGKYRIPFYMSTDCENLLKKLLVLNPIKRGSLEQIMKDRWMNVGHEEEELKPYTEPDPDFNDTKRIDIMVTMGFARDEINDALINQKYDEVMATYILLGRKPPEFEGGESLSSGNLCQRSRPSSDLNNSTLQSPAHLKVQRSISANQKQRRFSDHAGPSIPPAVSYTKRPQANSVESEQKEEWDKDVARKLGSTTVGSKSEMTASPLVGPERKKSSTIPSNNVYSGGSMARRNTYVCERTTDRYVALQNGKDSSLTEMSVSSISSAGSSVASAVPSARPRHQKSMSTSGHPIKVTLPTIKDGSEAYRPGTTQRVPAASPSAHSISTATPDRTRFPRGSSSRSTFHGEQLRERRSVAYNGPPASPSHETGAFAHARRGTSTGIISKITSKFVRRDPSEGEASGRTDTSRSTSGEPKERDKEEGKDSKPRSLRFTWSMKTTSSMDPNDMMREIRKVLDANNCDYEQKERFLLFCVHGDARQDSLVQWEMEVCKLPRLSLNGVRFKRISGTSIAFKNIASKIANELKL
Test [9] addresses TTBK1 (Homo sapiens, UniProt Q5TCY1). Kind of test: Kinase profiling. Format: biochemical.
Test [10] concerns Bone-marrow-derived macrophages. Description: Markers of 'regulatory' macrophages (qPCR). It counts as cell-based, mouse. The conditions noted are these: 3 μM bosutinib or 0.3 μM dasatinib 1 h, then LPS. As to the method:
as §1

For test [11], the target named is MPSK1 (Homo sapiens, UniProt O75716). Description: Kinase profiling. Format: biochemical.
MPSK1, sequence (O75716 whole entry): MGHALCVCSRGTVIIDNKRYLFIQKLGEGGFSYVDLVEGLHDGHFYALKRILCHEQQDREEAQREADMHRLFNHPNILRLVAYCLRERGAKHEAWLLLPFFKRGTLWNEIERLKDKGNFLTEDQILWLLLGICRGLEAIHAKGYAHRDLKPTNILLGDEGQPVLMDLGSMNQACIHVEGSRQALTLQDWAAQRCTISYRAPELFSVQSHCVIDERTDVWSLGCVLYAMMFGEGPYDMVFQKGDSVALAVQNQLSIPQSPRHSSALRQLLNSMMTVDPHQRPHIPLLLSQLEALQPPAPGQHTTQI
Test [12] has as its target CLK2 (Homo sapiens, UniProt P49760). Kind of test: Kinase profiling. Format: biochemical.

CLK2, sequence (P49760 whole entry): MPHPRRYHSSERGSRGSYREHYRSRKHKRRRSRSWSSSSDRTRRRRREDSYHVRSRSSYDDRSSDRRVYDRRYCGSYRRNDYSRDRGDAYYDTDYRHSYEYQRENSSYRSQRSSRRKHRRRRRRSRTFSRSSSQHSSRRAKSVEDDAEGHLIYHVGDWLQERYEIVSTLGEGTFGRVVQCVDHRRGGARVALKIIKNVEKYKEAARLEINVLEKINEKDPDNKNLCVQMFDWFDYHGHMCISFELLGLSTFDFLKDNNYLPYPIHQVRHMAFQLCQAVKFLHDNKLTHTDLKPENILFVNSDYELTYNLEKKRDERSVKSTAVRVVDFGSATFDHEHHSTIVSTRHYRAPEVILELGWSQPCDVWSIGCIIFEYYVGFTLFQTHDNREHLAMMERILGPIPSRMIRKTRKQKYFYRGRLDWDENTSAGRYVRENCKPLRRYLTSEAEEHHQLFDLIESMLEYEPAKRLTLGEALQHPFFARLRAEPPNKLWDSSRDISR
SIK2, sequence (Q9H0K1 whole entry): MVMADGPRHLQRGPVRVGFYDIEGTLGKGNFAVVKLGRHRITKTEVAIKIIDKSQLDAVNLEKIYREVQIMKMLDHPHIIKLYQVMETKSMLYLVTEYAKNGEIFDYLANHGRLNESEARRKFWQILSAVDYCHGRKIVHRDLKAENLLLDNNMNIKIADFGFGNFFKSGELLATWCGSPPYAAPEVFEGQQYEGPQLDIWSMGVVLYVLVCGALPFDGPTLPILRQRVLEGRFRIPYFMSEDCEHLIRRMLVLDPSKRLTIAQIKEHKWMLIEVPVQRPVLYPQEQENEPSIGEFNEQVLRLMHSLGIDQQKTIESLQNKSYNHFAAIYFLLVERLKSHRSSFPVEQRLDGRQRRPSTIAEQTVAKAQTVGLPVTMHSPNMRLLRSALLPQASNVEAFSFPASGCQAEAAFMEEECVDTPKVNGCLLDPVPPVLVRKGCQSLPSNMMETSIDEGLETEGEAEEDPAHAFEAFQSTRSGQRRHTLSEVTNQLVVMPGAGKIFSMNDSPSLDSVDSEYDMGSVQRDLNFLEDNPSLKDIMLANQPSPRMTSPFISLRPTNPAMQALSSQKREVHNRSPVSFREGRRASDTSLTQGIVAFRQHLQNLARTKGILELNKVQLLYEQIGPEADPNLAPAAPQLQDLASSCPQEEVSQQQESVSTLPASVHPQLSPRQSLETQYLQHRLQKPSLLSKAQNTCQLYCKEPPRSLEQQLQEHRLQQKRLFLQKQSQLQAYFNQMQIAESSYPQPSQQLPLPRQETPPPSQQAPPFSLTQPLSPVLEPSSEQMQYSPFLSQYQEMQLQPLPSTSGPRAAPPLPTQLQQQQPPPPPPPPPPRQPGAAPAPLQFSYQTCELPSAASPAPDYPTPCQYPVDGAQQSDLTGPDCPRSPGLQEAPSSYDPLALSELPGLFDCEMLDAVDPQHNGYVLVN
IRR, sequence (P14616 27-1297): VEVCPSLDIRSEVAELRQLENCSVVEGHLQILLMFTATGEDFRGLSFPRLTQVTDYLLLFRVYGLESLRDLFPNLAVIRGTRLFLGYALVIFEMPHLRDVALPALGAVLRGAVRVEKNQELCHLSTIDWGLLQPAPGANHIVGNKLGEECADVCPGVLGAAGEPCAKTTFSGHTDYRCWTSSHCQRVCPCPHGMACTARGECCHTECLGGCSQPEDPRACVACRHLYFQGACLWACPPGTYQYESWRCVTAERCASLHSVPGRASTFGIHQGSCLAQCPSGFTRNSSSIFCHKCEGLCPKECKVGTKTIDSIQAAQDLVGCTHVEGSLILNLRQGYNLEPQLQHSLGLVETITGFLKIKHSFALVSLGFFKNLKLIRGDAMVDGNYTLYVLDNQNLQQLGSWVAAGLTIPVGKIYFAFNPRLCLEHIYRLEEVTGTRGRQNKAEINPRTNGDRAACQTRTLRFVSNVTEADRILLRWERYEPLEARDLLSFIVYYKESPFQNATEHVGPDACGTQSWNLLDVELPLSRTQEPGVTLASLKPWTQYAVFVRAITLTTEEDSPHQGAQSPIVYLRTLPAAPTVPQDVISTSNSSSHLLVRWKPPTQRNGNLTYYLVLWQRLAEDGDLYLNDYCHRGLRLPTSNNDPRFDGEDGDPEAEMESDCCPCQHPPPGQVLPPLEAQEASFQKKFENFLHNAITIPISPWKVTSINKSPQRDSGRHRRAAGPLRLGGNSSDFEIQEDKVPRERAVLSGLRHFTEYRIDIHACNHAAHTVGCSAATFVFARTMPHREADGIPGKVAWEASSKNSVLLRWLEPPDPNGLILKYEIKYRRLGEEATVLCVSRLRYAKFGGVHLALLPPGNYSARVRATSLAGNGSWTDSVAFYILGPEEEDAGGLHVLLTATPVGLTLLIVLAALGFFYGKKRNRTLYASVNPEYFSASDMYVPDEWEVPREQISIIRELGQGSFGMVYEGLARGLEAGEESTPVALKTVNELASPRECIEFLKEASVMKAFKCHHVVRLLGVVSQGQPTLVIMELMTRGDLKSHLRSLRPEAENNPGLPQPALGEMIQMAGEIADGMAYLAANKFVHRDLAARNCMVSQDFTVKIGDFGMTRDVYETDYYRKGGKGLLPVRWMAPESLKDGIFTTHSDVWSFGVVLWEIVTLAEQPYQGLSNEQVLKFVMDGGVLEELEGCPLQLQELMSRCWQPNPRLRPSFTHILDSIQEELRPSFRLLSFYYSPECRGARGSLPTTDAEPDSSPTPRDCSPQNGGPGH

On to `COc1cc(Nc2c(C#N)cnc3cc(OCCCN4CCN(C)CC4)c(OC)cc23)c(Cl)cc1Cl` [Bosutinib, bosutinib], for which, in [1], the “Localization of CRTC3” value was “translocation to the nucleus”. In addition, the remaining activity at 0.1 µM in test [2] was 46 ± 7%; in test [3] it was 8%; in test [4], 96 ± 5%; in test [5] it was 88 ± 3%; in [6] it was 72 ± 5%; in [8] it was 84 ± 5%. Besides, the remaining activity at 0.1 µM in test [9] stood at 95 ± 2%; in test [11], 117 ± 15%; in [12] it was 75 ± 9%. Also, the remaining activity at 1 µM was found to be 6% in [2]; 3% in test [3]; 103 ± 3% in test [4]; 59 ± 1% in [6]; 76 ± 4% in test [8]; 114 ± 3% in test [9]. In addition, the values for the remaining activity at 1 µM in test [11] and in test [12] were 110 ± 11% and 23%, respectively. Besides, the “Transcription of CREB-dependent genes IL-10, Nurr77 and c-FOS” value in [7] was “elevated the transcription”. The “Expression of SPHK1, LIGHT and arginase 1” value in test [10] is reported as “elevated”.
`Cc1nc(Nc2ncc(C(=O)Nc3c(C)cccc3Cl)s2)cc(N2CCN(CCO)CC2)n1` [Dasatinib]: in test [1], the “Localization of CRTC3” value is “translocation to the nucleus”. Further, the remaining activity at 0.1 µM in test [2] worked out at 102 ± 5%; in test [3] it was 4 ± 1%; in test [4], 98 ± 3%; in test [5], 100 ± 4%; in test [6] it was 89 ± 4%; in [8], 115 ± 3%. The remaining activity at 0.1 µM in test [9] amounted to 112 ± 8%; in [11], 101 ± 5%; in test [12], 120 ± 6%. Also, the remaining activity at 1 µM came to 123 ± 13% in test [2]; 2 ± 1% in test [3]; 105 ± 14% in test [4]; 105 ± 7% in [5] (1 µM); 90 ± 14% in test [6]; 127 ± 3% in test [8]. In addition, the remaining activity at 1 µM stood at 112 ± 1% in test [9], 123 ± 1% in [11] and 121 ± 6% in test [12]. Also, the “Transcription of CREB-dependent genes IL-10, Nurr77 and c-FOS” value in test [7] is “elevated the transcription”. In test [10], the “Expression of SPHK1, LIGHT and arginase 1” value is “elevated”.
